Reference: patent publication US5523314A, “Compounds useful as hypoglycemic agents and for treating Alzheimer's disease” (priority 1994, dated 1996)
Where two headings read alike, the source gives them in different places.

What was measured:
blood glucose level [1] = assay: Hypoglycemic activity in obese diabetic mice (Table 1); assay type: in vivo, male viable yellow obese-diabetic mice; conditions: Mus musculus, ip, intraperitoneal
Protocol: The hypoglycemic activity of the compounds of the present invention was determined by testing the efficacy of the compounds in vivo in male viable yellow obese-diabetic mice. The test procedure is described in detail below.
Test formulations were prepared by dissolving the test compound in a saline solution containing 2% Emulphor (a polyoxyethylated vegetable oil surfactant from GAP Corp.) to provide the dose level desired. Each test formulation was administered to six viable yellow obese-diabetic mice intraperitoneally at the beginning of the experiment. Blood glucose levels were determined immediately before the first dose and at 2 and 4 hours thereafter using glucose oxidase. A mean was taken of the 6 values obtained before the first dose and at the 2 and 4 hour intervals. In Table 1, Column 1 provides the example number of the test compound, Column 2 provides the dose level of compound tested, and Columns 3 and 4 provide a measurement of the test animal's blood glucose level 2 and 4 hours after test compound administration, respectively, as a percentage of the test animal' s pre-administration blood glucose level.

blood glucose level [2] = assay: Hypoglycemic activity in normal fed rats (Table 2); assay type: in vivo, male Sprague Dawley rats; conditions: Rattus norvegicus, oral
Protocol: The procedure used in this test system is described below.
The desired dose level of each test formulation was administered to four rats by oral […] at the beginning of the experiment. Blood glucose levels were determined immediately before the first dose and at 3 and 5 hours thereafter by an enzymatic procedure employing glucose oxidase and peroxidase coupled with a chromogenic oxygen acceptor. A mean was taken of the 4 values obtained before the first dose and at the 3 and 5 hour intervals.

Human liver cathepsin D = biological target: T1, Human liver cathepsin D (Homo sapiens, UniProt P07339); assay: Cathepsin D inhibition, fluorometric assay (Tables 5 and 6); assay type: biochemical; conditions: for inhibition at 4.15 µg/mL (stock): Compound Stock Concentration 4.15 μg/ml; for inhibition at 8.3 µg/mL (stock): Compound Stock Concentration 8.3 μg/ml
T1 construct: purchased Athens Research and Technology, Athens, Ga; host or cells: human liver
Protocol: Human liver cathepsin D (Athens Research and Technology, Athens, Ga.) was diluted in assay buffer, 200 mM NaOAc, pH 4.5, 150 mM NaCl to 500 ng/mL and then 100 μL of this cathepsin D solution was added to each well of a 96 well plate with the exception of control wells which received just 100 μL of assay buffer. […] Blank and enzyme control wells each received 5 μL of the DMSO vehicle.
After incubation at 37° C. for 30 minutes, cathepsin D activity was terminated by the addition of 100 μL per well of 400 mU/mL microsomal leucine aminopeptidase (EC 3.4.11.2, Sigma, St. Louis, Mo.) in 1M Tris-HCl, pH 8.0.
Following a two hour incubation at 37° C., to allow the aminopeptidase to release the fluorophore, 7-amido-4-methylcoumarin (AMC) from the products of cathepsin D cleavage, the plates were again analyzed in the fluorometer. In order to check for potential false positives, i.e., inhibitors of microsomal leucine aminopeptidase, residual aminopeptidase activity was monitored directly in each well by the addition of 20 μL/well of 2.5 mM Leu-pNA (Bachem Biosciences, Philadelphia, Pa.) in 10% DMSO.

[3] = 2 h, 2 hrs, read-out: Percent of Initial Blood Glucose Level After 2 hrs.
[4] = 4 h, 4 hrs, read-out: Percent of Initial Blood Glucose Level After 4 hrs.
[5] = 3 hrs, read-out: Percent of Initial Blood Glucose Level After 3 hrs.
[6] = 5 hrs, read-out: Percent of Initial Blood Glucose Level After 5 hrs.
[7] = 2 hrs, read-out: Percent of Initial Blood Glucose Level After 2 hrs.
[8] = 4 hrs, read-out: Percent of Initial Blood Glucose Level After 4 hrs.

T1 sequence (P07339 169-412 limits assumed): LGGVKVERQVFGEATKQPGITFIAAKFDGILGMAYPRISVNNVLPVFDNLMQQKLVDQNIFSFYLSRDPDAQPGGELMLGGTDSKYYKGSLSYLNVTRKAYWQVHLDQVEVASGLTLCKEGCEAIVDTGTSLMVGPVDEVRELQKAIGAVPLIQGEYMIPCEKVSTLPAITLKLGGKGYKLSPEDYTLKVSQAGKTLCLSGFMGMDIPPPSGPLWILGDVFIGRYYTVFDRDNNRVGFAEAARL
T1 sequence (P07339 65-161 limits assumed): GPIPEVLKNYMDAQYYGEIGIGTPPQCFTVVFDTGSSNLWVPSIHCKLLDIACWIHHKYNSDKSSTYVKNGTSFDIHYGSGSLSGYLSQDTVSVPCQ

Q: For `CCOc1ccc(C=C2SC(=S)NC2=O)cc1OC` [Example 48, 5-[(3-methoxy-4-ethoxyphenyl)methylene]-2-thioxo-4-thiazolidinone], which response vs control in vivo at 25 mg/kg (blood glucose level [1]; [3]) is on record?
A: 87 ± 4%

Q: What about the response vs control in vivo at 50 mg/kg (blood glucose level [1]; [3]) of the same compound?
A: 70 ± 3%

Q: And the response vs control in vivo at 25 mg/kg (blood glucose level [1]; [4])?
A: 81 ± 5%

Q: And the response vs control in vivo at 50 mg/kg (blood glucose level [1]; [4])?
A: 65 ± 3%

Q: And the response vs control in vivo at 167 mg/kg (blood glucose level [2]; [5])?
A: 87%

Q: What about the response vs control in vivo at 167 mg/kg (blood glucose level [2]; [6]) of the same compound?
A: 81%

Q: Which response vs control in vivo at 25 mg/kg (blood glucose level [1]; [7]) does the source give for `COc1cccc(C=C2SC(=S)NC2=O)c1` [Example 25, 5-[(3-methoxyphenyl)methylene]-2-thioxo-4-thiazolidinone] here?
A: 84 ± 5%

Q: And the response vs control in vivo at 25 mg/kg (blood glucose level [1]; [8])?
A: 87 ± 6%

Q: And the response vs control in vivo at 50 mg/kg (blood glucose level [1]; [7])?
A: 78 ± 4%

Q: What about the response vs control in vivo at 50 mg/kg (blood glucose level [1]; [8]) of the same compound?
A: 74 ± 4%

Q: And the response vs control in vivo at 200 mg/kg (blood glucose level [2]; [5])?
A: 100%

Q: What about the response vs control in vivo at 200 mg/kg (blood glucose level [2]; [6]) of the same compound?
A: 100%

Q: Which response vs control in vivo at 50 mg/kg (blood glucose level [1]; [3]) does the source give for `O=C1NC(=S)SC1=Cc1ccncc1` [Example 16, 5-[(4-pyridyl)methylene]-2-thioxo-4-thiazolidinone] here?
A: 94 ± 8%

Q: And the response vs control in vivo at 50 mg/kg (blood glucose level [1]; [4])?
A: 96 ± 9%

Q: And the response vs control in vivo at 200 mg/kg (blood glucose level [2]; [5])?
A: 92%

Q: And the response vs control in vivo at 200 mg/kg (blood glucose level [2]; [6])?
A: 79%

Q: Which response vs control in vivo at 50 mg/kg (blood glucose level [1]; [3]) does the source give for `CCOc1cc(C=C2SC(=S)NC2=O)ccc1OC` [Example 58, 5-[(3-ethoxy-4-methoxyphenyl)methylene]-2-thioxo-4-thiazolidinone] here?
A: 67 ± 2%

Q: And the response vs control in vivo at 50 mg/kg (blood glucose level [1]; [4])?
A: 75 ± 5%

Q: And the response vs control in vivo at 200 mg/kg (blood glucose level [2]; [5])?
A: 100%

Q: And the response vs control in vivo at 200 mg/kg (blood glucose level [2]; [6])?
A: 100%

Q: `O=C1NC(=S)SC1=Cc1ccc2ccccc2c1` [Example 35, 5-[(2-naphthalenyl)methylene)-2-thioxo-4-thiazolidinone] was tested. Which response vs control in vivo at 50 mg/kg (blood glucose level [1]; [3]) did it give?
A: 83 ± 5%

Q: What about the response vs control in vivo at 50 mg/kg (blood glucose level [1]; [4]) of the same compound?
A: 85 ± 6%

Q: And the IC50 (Human liver cathepsin D)?
A: 8900 nM

Q: And the inhibition at 4.15 µg/mL (stock) (Human liver cathepsin D)?
A: 57%

Q: What does the source list for `O=C1NC(=S)SC1=C(c1ccccc1)c1ccccc1` [Example 4, 5-(diphenylmethylene)-2-thioxo-4-thiazolidinone]?
A: response vs control in vivo at 50 mg/kg (blood glucose level [1]; [3]): 91 ± 4%; response vs control in vivo at 50 mg/kg (blood glucose level [1]; [4]): 72 ± 7%; inhibition at 10 µg/mL (stock) (Human liver cathepsin D; Compound Stock Concentration 10.0 μg/ml): 50%

Q: `Cc1cc(C=C2SC(=S)NC2=O)cc(C)c1O` [Example 62, 5-[(3,5-dimethyl-4-hydroxyphenyl)methylene]-2-thioxo-4-thiazolidinone] was tested. Which response vs control in vivo at 200 mg/kg (blood glucose level [2]; [5]) did it give?
A: 78%

Q: What about the response vs control in vivo at 200 mg/kg (blood glucose level [2]; [6]) of the same compound?
A: 53%

Q: `COc1ccc(C(=C2SC(=S)NC2=O)c2ccccc2)cc1` [Example 21, 5-[(4-methoxyphenyl)phenylmethylene]-2-thioxo-4-thiazolidinone] was tested. Which response vs control in vivo at 50 mg/kg (blood glucose level [1]; [3]) did it give?
A: 99 ± 4%

Q: And the response vs control in vivo at 50 mg/kg (blood glucose level [1]; [4])?
A: 81 ± 6%

Q: What about the inhibition at 4.15 µg/mL (stock) (Human liver cathepsin D) of the same compound?
A: 40%

Q: With `COc1c(C(C)(C)C)cc(C=C2SC(=S)NC2=O)cc1C(C)(C)C` [Example 87, 5-[[3,5-bis(1,1-dimethylethyl)-4-methoxyphenyl]methylene]-2-thioxo-4-thiazolidinone] as the compound, how does the IC50 (Human liver cathepsin D) read?
A: 2200 nM

Q: `CCOc1cc(C=C2SC(=S)NC2=O)cc(CSc2ccccc2)c1O` [Example 72] was tested. Which IC50 (Human liver cathepsin D; 50% inhibition of cathepsin D) did it give?
A: 1700 nM

Q: What about the inhibition at 4.15 µg/mL (stock) (Human liver cathepsin D) of the same compound?
A: 88%

Q: And the inhibition at 8.3 µg/mL (stock) (Human liver cathepsin D)?
A: 96%

Q: What does the source list for `CC(C)(C)c1cc(C=C2SC(=S)NC2=O)cc(C(C)(C)C)c1O` [Example 28, 5-[[3,5-bis(1,1-dimethylethyl)-4-hydroxyphenyl]methylene]-2-thioxo-4-thiazolidinone]?
A: response vs control in vivo at 50 mg/kg (blood glucose level [1]; [3]): 83 ± 9%; response vs control in vivo at 50 mg/kg (blood glucose level [1]; [4]): 79 ± 7%; IC50 (Human liver cathepsin D): 3100 nM

Q: Which inhibition at 8.3 µg/mL (stock) (Human liver cathepsin D) does the source give for `C=CCN1C(=O)C(=Cc2ccc(OCCCCCCC)c(OC)c2)SC1=S` [Example 95, 5-[(3-methoxy-4-heptoxyphenyl)methylene]-2-thioxo-3-(2-propenyl)-4-thiazolidinone] here?
A: 36%
